Test results taken from patent US8673351B2, “Crystallization inhibitor and its use in gelatin capsules” (Ivax Pharmaceuticals S.R.O., priority 2005, dated 2014).

Experiment: Titration of lipophilic capsule contents (placebo) with water until emulsification (robustness)
Format: physicochemical
Conditions: placebo capsule contents after the 5 w/w addition of the emulsion stabilizer; titrated with water at room temperature until clear oily liquid turns into milky turbid emulsion
Text: The resistance of the contents of gelatin capsules to the water passing inside was quantified by performing a titration experiment. While stirring constantly using a magnetic stirrer at room temperature, the lipophilic contents intended for capsules was gradually titrated with water until the clear oily liquid begins to change into a milky turbid emulsion.
The robustness of the contents was expressed in the following table as an amount of water, in % w/w, necessary to induce emulsification of the contents.

| Robustness (amount of water necessary to induce emulsification of the contents) | Compound |
| --- | --- |
| 0.84 weight % | Decaglyceryl monolaurate |
| 1.02 weight % | Decaglyceryl monooleate |
| 3.23 weight % | CCCCC/C=C\C/C=C\CCCCCCCC(=O)OCC(O)CO (stereo not drawn) [Glyceryl monolinoleate] |

The next lines start with the compound.

| Compound | Robustness (amount of water necessary to induce emulsification of the contents) |
| --- | --- |
| Diglyceryl monooleate | 1.68 weight % |
| CCCCCCCC/C=C\CCCCCCCC(=O)OCC(O)CO (stereo not drawn) [Glyceryl monooleate] | 4.98 weight % |
| Decaglyceryl decaoleate | 0.85 weight % |
